PubChem BioAssay AID248 (DTP/NCI, 2004)
“And” between values parts separate entries of the source, which are not always exact repeats. Equal entries are not always repeated. Inconclusive results and toxic doses are left out. Rule as the data show it: active = T/C of 150% or more; inactive = T/C below 125%.

Tested on: L1210 leukemia ip in BDF1 mice, survival T/C
Assay: NCI In Vivo Anticancer Drug Screen. Data for tumor model L1210 Leukemia (intraperitoneal) in B6D2F1 (BDF1) mice
Details: endpoint: mean survival time, higher = longer survival
Summary of the method: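 Read-out is survival time, reported as the treated-group measurement over the vehicle-control measurement.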

[1] = dose: 100.0 mg/kg/injection, schedule: Q04DX003 (ip), vehicle: saline with Tween-80
[2] = dose: 200.0 mg/kg/injection, schedule: Q04DX003 (ip), vehicle: saline with Tween-80
[3] = dose: 400.0 mg/kg/injection, schedule: Q04DX003 (ip), vehicle: saline with Tween-80
[4] = dose: 100.0 mg/kg/injection, schedule: Q01DX009 (ip), vehicle: Klucel (hydroxypropylcellulose) (HPC)
[5] = dose: 100.0 mg/kg/injection, schedule: Q04DX003 (ip), vehicle: Klucel (hydroxypropylcellulose) (HPC)
[6] = dose: 200.0 mg/kg/injection, schedule: Q01DX009 (ip), vehicle: Klucel (hydroxypropylcellulose) (HPC)
[7] = dose: 200.0 mg/kg/injection, schedule: Q04DX003 (ip), vehicle: Klucel (hydroxypropylcellulose) (HPC)
[8] = dose: 400.0 mg/kg/injection, schedule: Q01DX009 (ip), vehicle: Klucel (hydroxypropylcellulose) (HPC)
[9] = dose: 400.0 mg/kg/injection, schedule: Q04DX003 (ip), vehicle: Klucel (hydroxypropylcellulose) (HPC)
[10] = dose: 75.0 mg/kg/injection, schedule: Q01DX001 (ip), vehicle: saline
[11] = dose: 100.0 mg/kg/injection, schedule: Q01DX009 (ip), vehicle: saline with Tween-80
[12] = dose: 200.0 mg/kg/injection, schedule: Q01DX009 (ip), vehicle: saline with Tween-80
[13] = dose: 400.0 mg/kg/injection, schedule: Q01DX009 (ip), vehicle: saline with Tween-80
[14] = dose: 100.0 mg/kg/injection, schedule: Q04DX002 (ip), vehicle: Klucel (hydroxypropylcellulose) (HPC)
[15] = dose: 400.0 mg/kg/injection, schedule: Q04DX002 (ip), vehicle: Klucel (hydroxypropylcellulose) (HPC)
[16] = dose: 50.0 mg/kg/injection, schedule: Q01DX001 (ip), vehicle: saline
[17] = dose: 100.0 mg/kg/injection, schedule: Q01DX001 (ip), vehicle: saline
[18] = dose: 200.0 mg/kg/injection, schedule: Q01DX001 (ip), vehicle: saline
[19] = dose: 400.0 mg/kg/injection, schedule: Q01DX001 (ip), vehicle: saline
[20] = dose: 100.0 mg/kg/injection, schedule: Q01DX001 (ip), vehicle: carboxymethylcellulose (CMC)
[21] = dose: 200.0 mg/kg/injection, schedule: Q01DX001 (ip), vehicle: carboxymethylcellulose (CMC)
[22] = dose: 400.0 mg/kg/injection, schedule: Q01DX001 (ip), vehicle: carboxymethylcellulose (CMC)

Measured: T/C

C1COCCN1
inactive: dose: 25.6 mg/kg/injection, schedule: Q04DX002 (ip), vehicle: saline with Tween-80 101 % of control | dose: 64.0 mg/kg/injection, schedule: Q04DX002 (ip), vehicle: saline with Tween-80 101 % of control | [1] 98 % of control | dose: 160.0 mg/kg/injection, schedule: Q04DX002 (ip), vehicle: saline with Tween-80 101 % of control | [2] 101 % of control | dose: 400.0 mg/kg/injection, schedule: Q04DX002 (ip), vehicle: saline with Tween-80 101 % of control | [3] 95 % of control

CCOC(=O)c1ccccc1N(O)C(=O)NC12CC3CC(CC(C3)C1)C2
inactive: [1] 94 % of control | [2] 94 % of control | [3] 94 % of control

CCn1c(=O)cc(C)c2ccccc21
inactive: dose: 75.0 mg/kg/injection, schedule: Q01DX001 (ip), vehicle: carboxymethylcellulose (CMC) 104 % of control | dose: 150.0 mg/kg/injection, schedule: Q01DX001 (ip), vehicle: carboxymethylcellulose (CMC) 104 % of control | dose: 300.0 mg/kg/injection, schedule: Q01DX001 (ip), vehicle: carboxymethylcellulose (CMC) 96 % of control

Nc1cc2c3ccccc3c(F)cc2c2ccccc12
inactive: [4] 106 % of control | [5] 96 % of control | [6] 104 % of control | [7] 93 % of control | [8] 101 % of control | [9] 98 % of control

CCOC(=O)COc1ccc(C=O)cc1
inactive: [4] 110 % of control | [5] 102 % of control | [6] 96 % of control | [7] 96 % of control | [8] 98 % of control | [9] 97 % of control

Cc1ccnc2c(N)cccc12
inactive: [10] 98 % of control

CC(=O)NC(C)CCC(C)C (stereo unspecified)
inactive: [5] 101 % of control | [7] 100 % of control | [9] 101 % of control

c1ccc(C2O[O][Sn]([c]3ccccc3)([c]3ccccc3)[O]2)cc1 (stereo unspecified)
inactive: dose: 25.0 mg/kg/injection, schedule: Q04DX002 (ip), vehicle: gum acacia 97 % of control | dose: 50.0 mg/kg/injection, schedule: Q04DX002 (ip), vehicle: gum acacia 111 % of control | dose: 100.0 mg/kg/injection, schedule: Q04DX002 (ip), vehicle: gum acacia 105 % of control and 86 % of control

Cc1cc(=O)[nH]c2c1CCCC2
inactive: [1] 92 % of control | [2] 97 % of control | [3] 101 % of control

O=[N+]([O-])c1cc(Cl)c(Cl)cc1NS(=O)(=O)c1ccccc1
inactive: dose: 25.0 mg/kg/injection, schedule: Q01DX Z (ip), vehicle: carboxymethylcellulose (CMC) 101 % of control | dose: 50.0 mg/kg/injection, schedule: Q01DX Z (ip), vehicle: carboxymethylcellulose (CMC) 98 % of control | dose: 100.0 mg/kg/injection, schedule: Q01DX Z (ip), vehicle: carboxymethylcellulose (CMC) 101 % of control | dose: 200.0 mg/kg/injection, schedule: Q01DX Z (ip), vehicle: carboxymethylcellulose (CMC) 96 % of control | dose: 275.0 mg/kg/injection, schedule: Q01DX015 (ip), vehicle: carboxymethylcellulose (CMC) 90 % of control | dose: 350.0 mg/kg/injection, schedule: Q01DX015 (ip), vehicle: carboxymethylcellulose (CMC) 98 % of control | dose: 425.0 mg/kg/injection, schedule: Q01DX015 (ip), vehicle: carboxymethylcellulose (CMC) 111 % of control | dose: 700.0 mg/kg/injection, schedule: Q01DX015 (ip), vehicle: carboxymethylcellulose (CMC) 86 % of control

Cc1nc2cc3ccccc3c3ccc4cccc1c4c23
inactive: [11] 93 % of control | [12] 93 % of control | [13] 87 % of control

CC(C)(C)OC1C2C=CC1C1C2C2(Cl)C(Cl)=C(Cl)C1(Cl)C21OCCO1 (stereo unspecified)
inactive: [14] 97 % of control | [15] 110 % of control

O=Cc1cn[nH]c1-c1ccccc1
inactive: [4] 97 % of control | [5] 95 % of control | [6] 97 % of control | [7] 98 % of control | [8] 106 % of control | [9] 98 % of control

CCCCn1c(C)nc2c(N)cc(C(F)(F)F)cc21
inactive: dose: 200.0 mg/kg/injection, schedule: Q01DX001 (ip), vehicle: Klucel (hydroxypropylcellulose) (HPC) 100 % of control | dose: 400.0 mg/kg/injection, schedule: Q01DX001 (ip), vehicle: Klucel (hydroxypropylcellulose) (HPC) 111 % of control

CCCCN(CCCC)C(=O)C1C=C2c3cccc4[nH]cc(c34)CC2N(C#N)C1 (stereo unspecified)
inactive: dose: 25.0 mg/kg/injection, schedule: Q01DX009 (ip), vehicle: saline with Tween-80 97 % of control | dose: 50.0 mg/kg/injection, schedule: Q01DX009 (ip), vehicle: saline with Tween-80 91 % of control | [11] 94 % of control | [1] 101 % of control | [12] 87 % of control | [2] 100 % of control | [3] 96 % of control

Cc1ccc(S(=O)(=O)CC(=O)NC(N)=O)cc1
inactive: dose: 100.0 mg/kg/injection, schedule: Q04DX003 (ip), vehicle: saline 92 % of control | dose: 200.0 mg/kg/injection, schedule: Q04DX003 (ip), vehicle: saline 103 % of control | dose: 400.0 mg/kg/injection, schedule: Q04DX003 (ip), vehicle: saline 105 % of control

CC(=O)N1Cc2ccc(/C=C(/C#N)C(N)=O)n2Cc2cc3c(cc21)OCO3
inactive: dose: 25.0 mg/kg/injection, schedule: Q04DX002 (ip), vehicle: Klucel (hydroxypropylcellulose) (HPC) 91 % of control | dose: 50.0 mg/kg/injection, schedule: Q04DX002 (ip), vehicle: Klucel (hydroxypropylcellulose) (HPC) 98 % of control | [14] 91 % of control

Cc1cc(C(C)(C)C)c(SC(=O)N(C)C)c(C(C)(C)C)c1
inactive: [1] 97 % of control | [2] 95 % of control

O=S(=O)(Cc1ccc(Br)cc1)Cc1ccc(Br)cc1
inactive: [16] 102 % of control | [17] 90 % of control | [18] 88 % of control | [19] 90 % of control

Oc1ccc(N=Cc2ccccn2)cc1
inactive: [20] 96 % of control | [21] 105 % of control | [22] 98 % of control

O=C1Cc2ccccc2C(=O)N1Nc1ccccc1
inactive: dose: 22.0 mg/kg/injection, schedule: Q01DX001 (ip), vehicle: saline 96 % of control | dose: 33.0 mg/kg/injection, schedule: Q01DX001 (ip), vehicle: saline 91 % of control | [16] 93 % of control and 101 % of control | [10] 95 % of control | [17] 101 % of control | [18] 95 % of control | [19] 95 % of control

O=C(CCCCl)CC(O)(C(F)(F)F)C(F)(F)F
inactive: [11] 104 % of control | [1] 101 % of control | [12] 93 % of control | [2] 94 % of control | [3] 100 % of control

O=[N+]([O-])c1ccc(N2CCCCC2)nc1
inactive: dose: 50.0 mg/kg/injection, schedule: Q01DX001 (ip), vehicle: carboxymethylcellulose (CMC) 115 % of control | [20] 91 % of control | [21] 115 % of control | [22] 97 % of control

COc1ccc(/C=C2\N=C(c3cccc(Cl)c3)OC2=O)cc1OC
inactive: [11] 105 % of control | [14] 89 % of control | [12] 97 % of control | dose: 200.0 mg/kg/injection, schedule: Q04DX002 (ip), vehicle: Klucel (hydroxypropylcellulose) (HPC) 92 % of control | [13] 105 % of control | [15] 86 % of control

CC(C)C(=O)[O][Sn]([CH3])([CH3])[CH3]
inactive: dose: 0.19 mg/kg/injection, schedule: Q01DX009 (ip), vehicle: Klucel (hydroxypropylcellulose) (HPC) 90 % of control | dose: 0.39 mg/kg/injection, schedule: Q01DX009 (ip), vehicle: Klucel (hydroxypropylcellulose) (HPC) 95 % of control | dose: 0.78 mg/kg/injection, schedule: Q01DX009 (ip), vehicle: Klucel (hydroxypropylcellulose) (HPC) 93 % of control and 106 % of control | dose: 0.78 mg/kg/injection, schedule: Q04DX002 (ip), vehicle: Klucel (hydroxypropylcellulose) (HPC) 95 % of control | dose: 1.56 mg/kg/injection, schedule: Q04DX002 (ip), vehicle: Klucel (hydroxypropylcellulose) (HPC) 100 % of control | dose: 3.12 mg/kg/injection, schedule: Q04DX002 (ip), vehicle: Klucel (hydroxypropylcellulose) (HPC) 103 % of control
